Where two headings read alike, the source gives them in different places. One block for each compound: values may come before it.
Experiments:
OAT1/3 [1] = experiment: Bottom-up IVIVE of CLint,sec, CLsec and CLr, relative expression factor (REF) approach; parameters: species or system human
Source text: (§1) The relative expression and relative activity factor (REF and RAF) are unitless scalers that account for in vivo versus in vitro differences in the abundance and activity of OAT1/3 and are used for IVIVE of in vitro CLint,u,active. REF was derived from the OAT1/3 expression ratio between the in vivo human kidney cortex to the in vitro ciPTEC-OAT1/3, as shown in eq 7: [drawing 8] 7 Absolute abundance of OAT1 and OAT3 in the human kidney cortex was previously quantified by our group using the filter-aided sample preparation protocol and global proteomic analysis.[44]

OAT3 = biological target: T1, OAT3 (Homo sapiens, UniProt Q8TCC7); experiment: OAT3 uptake study in ciPTEC-OAT3; details: for OAT3 substrate status (uptake in ciPTEC-OAT3): control vs probenecid 300 μM; for Vb,max OAT3, Active and Passive Uptake: eq 4 fitted to CLint,u; for Vb,max OAT3, Active and Passive Uptake / Vb,max OAT3, Active Uptake Only: mean ± S.D.; for Vb,max OAT3, Active Uptake Only: eq 4 fitted to CLint,u,active
T1 sequence (Q8TCC7 1-542): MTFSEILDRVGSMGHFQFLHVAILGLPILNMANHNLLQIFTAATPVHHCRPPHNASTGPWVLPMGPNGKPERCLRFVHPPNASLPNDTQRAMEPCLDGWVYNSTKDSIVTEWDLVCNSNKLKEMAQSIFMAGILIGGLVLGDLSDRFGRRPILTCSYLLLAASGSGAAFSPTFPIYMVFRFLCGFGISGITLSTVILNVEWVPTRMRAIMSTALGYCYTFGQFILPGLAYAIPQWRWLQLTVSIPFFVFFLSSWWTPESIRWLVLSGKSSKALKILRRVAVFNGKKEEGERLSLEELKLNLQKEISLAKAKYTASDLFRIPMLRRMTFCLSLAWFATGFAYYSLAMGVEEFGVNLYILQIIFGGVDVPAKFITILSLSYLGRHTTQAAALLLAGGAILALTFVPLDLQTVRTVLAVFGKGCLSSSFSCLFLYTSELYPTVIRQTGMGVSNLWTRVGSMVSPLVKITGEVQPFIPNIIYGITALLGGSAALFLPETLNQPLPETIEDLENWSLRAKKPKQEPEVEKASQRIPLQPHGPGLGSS

[2] = Observed in vivo (clinical) renal, secretion and intrinsic secretion clearance; details: in vivo
[3] = in vivo, plasma renal clearance, clinical data; cited from earlier work
human serum albumin = human serum albumin (Homo sapiens, UniProt P02768); experiment: Extent of albumin binding: high throughput equilibrium dialysis (fu,inc, Kd); assay type: in vitro ADME; details: for Kd: estimated using eq 3 from measured fu,inc; for fraction unbound at 6 h: human
Description: Briefly, cellulose membranes with MWCO of 12–14 kDa were submerged in distilled water for 1 h, followed by 20% ethanol/distilled water for at least 20 min. Prior to the start of the experiment, cellulose membranes were rinsed in distilled water and submerged in blank DPBS for 15 min. The HTDialysis device was assembled according to the manufacturer’s instructions (https://www.htdialysis.com). Blank DPBS was first added to the receiver side of the dialysis membranes, followed by DPBS spiked with HSA and the OAT1/3 substrate to the donor side. Each HSA concentration was tested in triplicates. The HTDialysis device was sealed with an adhesive sealing film and incubated in a water bath at 37 °C for 6 h shaken at 150 rpm. Once the assay was completed, aliquots from both receiver and donor wells were transferred to a 96-well plate and stored at −80 °C until analysis. DPBS spiked with the OAT1/3 substrate from both before and after incubation was stored to assess the recovery and stability of the samples. To prepare the sample for analysis, donor and receiver samples were matrix-matched and quenched with ice-cold acetonitrile containing an internal standard (0.5 μM gemfibrozil or 0.05 μM buspirone).

OAT1/3 [4] = experiment: Bottom-up IVIVE of CLint,sec, CLsec and CLr, relative activity factor (RAF) approach; parameters: species or system human
Source text: as §1

OAT1 = biological target: T2, OAT1 (Homo sapiens, UniProt Q4U2R8); experiment: OAT1 uptake study in ciPTEC-OAT1; details: for ratio of CLint,u,active (R) (HSA/control) 1%: OAT1, 1% HSA vs control; for ratio of CLint,u,active (R) (HSA/control) 1% / ratio of CLint,u,active (R) (HSA/control) 4%: unbound concentration kept constant; for ratio of CLint,u,active (R) (HSA/control) 4%: OAT1, 4% HSA vs control; for OAT1 substrate status (uptake in ciPTEC-OAT1): control vs probenecid 300 μM; for Vb,max OAT1, Active and Passive Uptake: eq 4 fitted to CLint,u; for Vb,max OAT1, Active and Passive Uptake / Vb,max OAT1, Active Uptake Only: mean ± S.D.; for Vb,max OAT1, Active Uptake Only: eq 4 fitted to CLint,u,active, Kd,m fixed from OAT3 data; for Change to passive diffusion clearance upon inclusion of 1% HSA: probenecid condition, preliminary experiments
T2 sequence (Q4U2R8 1-563): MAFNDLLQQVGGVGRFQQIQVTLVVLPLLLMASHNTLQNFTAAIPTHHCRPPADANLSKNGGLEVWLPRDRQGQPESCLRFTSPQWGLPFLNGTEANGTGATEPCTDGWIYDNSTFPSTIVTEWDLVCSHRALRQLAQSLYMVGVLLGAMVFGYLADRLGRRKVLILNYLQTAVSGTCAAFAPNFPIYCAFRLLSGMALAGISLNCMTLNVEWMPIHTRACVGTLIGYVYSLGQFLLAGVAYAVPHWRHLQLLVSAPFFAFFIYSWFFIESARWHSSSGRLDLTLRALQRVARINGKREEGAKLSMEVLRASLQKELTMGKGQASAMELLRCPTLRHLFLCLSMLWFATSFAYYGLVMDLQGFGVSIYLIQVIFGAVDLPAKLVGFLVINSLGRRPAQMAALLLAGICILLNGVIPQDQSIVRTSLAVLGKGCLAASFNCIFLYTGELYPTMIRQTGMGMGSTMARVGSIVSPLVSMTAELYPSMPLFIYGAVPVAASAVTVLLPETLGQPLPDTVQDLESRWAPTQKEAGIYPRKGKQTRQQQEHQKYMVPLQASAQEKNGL

[5] = human, in vivo
[6] = 1% human serum albumin in DPBS, 1% HSA, equilibrium dialysis 37 °C 6 h, mean ± SD, read-out: fu,inc (1%)
[7] = 4% HSA in DPBS, 4% HSA, equilibrium dialysis 37 °C 6 h, mean ± SD, read-out: fu,inc (4%)

human serum albumin, sequence (P02768 25-609): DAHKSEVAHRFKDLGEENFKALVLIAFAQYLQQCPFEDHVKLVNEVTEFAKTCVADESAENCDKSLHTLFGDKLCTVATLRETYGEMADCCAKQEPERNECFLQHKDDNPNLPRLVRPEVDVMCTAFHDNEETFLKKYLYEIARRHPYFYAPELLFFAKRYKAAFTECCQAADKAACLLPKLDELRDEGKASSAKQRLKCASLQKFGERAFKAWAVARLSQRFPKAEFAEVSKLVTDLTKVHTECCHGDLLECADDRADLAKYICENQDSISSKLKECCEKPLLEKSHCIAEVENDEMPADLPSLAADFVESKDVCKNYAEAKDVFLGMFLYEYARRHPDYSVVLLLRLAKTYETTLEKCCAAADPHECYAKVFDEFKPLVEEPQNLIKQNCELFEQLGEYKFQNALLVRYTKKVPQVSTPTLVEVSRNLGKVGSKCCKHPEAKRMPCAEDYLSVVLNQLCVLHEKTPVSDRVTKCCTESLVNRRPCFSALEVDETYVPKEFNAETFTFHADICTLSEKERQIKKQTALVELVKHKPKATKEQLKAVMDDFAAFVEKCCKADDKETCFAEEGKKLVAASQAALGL

CLint,sec Predicted 0% HSA (OAT1/3 [1]; REF approach): 3.46 L/h
CLint,sec Predicted 1% HSA (OAT1/3 [1]; REF approach): 7.85 L/h
CLint,sec Predicted 4% HSA (OAT1/3 [1]; REF approach): 12.6 L/h
CLsec Predicted 0% HSA (OAT1/3 [1]; REF approach): 0.29 L/h
CLsec Predicted 1% HSA (OAT1/3 [1]; REF approach): 0.66 L/h
CLsec Predicted 4% HSA (OAT1/3 [1]; REF approach): 1.05 L/h
Predicted CLr, CLsec and CLint,sec as % of observed (OAT1/3 [1]; regardless of albumin inclusion and of RAF/REF approach): < 20%
ratio of CLint,u,active (R) (HSA/control) 1% (OAT3; OAT3, 1% HSA vs control): 2.64 ± 1.12
ratio of CLint,u,active (R) (HSA/control) 4% (OAT3; OAT3, 4% HSA vs control): 3.85 ± 1.30
OAT3 substrate status (uptake in ciPTEC-OAT3) (OAT3): dual OAT1/3 substrates
Vb,max OAT3, Active and Passive Uptake (OAT3): 53.1 ± 17.1 pmol/min/mg
Vb,max OAT3, Active Uptake Only (OAT3): 51.9 ± 15.8 pmol/min/mg
CLint,sec Observed ([2]; back-calculated from clinical data): 340 L/h
CLsec Observed ([2]; plasma secretion clearance): 14.8 L/h
Kd (human serum albumin; mean ± SD): 56.4 ± 2.5 µM
fraction unbound at 6 h (human serum albumin; 0.5% HSA in DPBS, 0.5% HSA, mean ± S.D., read-out: fu,inc): 0.4 ± 0.042
fraction unbound at 6 h (human serum albumin; [6]): 0.298 ± 0.005
fraction unbound at 6 h (human serum albumin; 2% HSA in DPBS, 2% HSA, mean ± S.D., read-out: fu,inc): 0.163 ± 0.005
fraction unbound at 6 h (human serum albumin; [7]): 0.079 ± 0.006
CLint,sec Predicted 0% HSA (OAT1/3 [4]): 8.79 L/h
CLint,sec Predicted 1% HSA (OAT1/3 [4]): 22.1 L/h
CLint,sec Predicted 4% HSA (OAT1/3 [4]): 32.6 L/h
CLsec Predicted 0% HSA (OAT1/3 [4]): 0.74 L/h
CLsec Predicted 1% HSA (OAT1/3 [4]): 1.79 L/h
CLsec Predicted 4% HSA (OAT1/3 [4]): 2.57 L/h
fold increase in OAT1 CLint,u,active versus control (OAT1; 0.5% HSA, total concentration constant at 10 µM, preliminary): 1.50 fold
fold increase in OAT1 CLint,u,active versus control (OAT1; 0.5% HSA, unbound concentration constant at 1.0 µM): 1.50 fold
fold increase in OAT1 CLint,u,active versus control (OAT1; 1.0% HSA, total concentration constant at 10 µM, preliminary): 1.82 fold
fold increase in OAT1 CLint,u,active versus control (OAT1; 2.0% HSA, total concentration constant at 10 µM, preliminary): 0.93 fold
fold increase in OAT1 CLint,u,active versus control (OAT1; 2.0% HSA, unbound concentration constant at 1.0 µM): 1.79 fold
fold increase in OAT1 CLint,u,active versus control (OAT1; 4.0% HSA, total concentration constant at 10 µM, preliminary): 2.2 fold
ratio of CLint,u,active (R) (HSA/control) 1% (OAT1): 1.92 ± 0.65
ratio of CLint,u,active (R) (HSA/control) 1% (OAT1; listed as PDA): 1.92
ratio of CLint,u,active (R) (HSA/control) 4% (OAT1): 3.46 ± 0.47
ratio of CLint,u,active (R) (HSA/control) 4% (OAT1; listed as PDA): 3.46
unbound passive diffusion clearance (CLpd) (OAT1; ciPTEC-OAT1, 300 µM probenecid): 0.031 µL/min/mg
unbound passive diffusion clearance (CLpd) (OAT1; ciPTEC-OAT1, 1.0% HSA + 300 µM probenecid): 0.039 µL/min/mg
OAT1 substrate status (uptake in ciPTEC-OAT1) (OAT1): dual OAT1/3 substrates
Vb,max OAT1, Active and Passive Uptake (OAT1): 222 ± 24.6 pmol/min/mg
Vb,max OAT1, Active Uptake Only (OAT1): 213 ± 24 pmol/min/mg
Change to passive diffusion clearance upon inclusion of 1% HSA (OAT1): minimal change
Change to passive diffusion clearance upon inclusion of 1% HSA (OAT1; listed as PDA): minimal changes
SMILES: Cc1ncc(CO)c(C(=O)O)c1O [4-pyridoxic acid]
CLr Observed [3]: 15.6 L/h

OAT3 substrate status (uptake in ciPTEC-OAT3) (OAT3): dual OAT1/3 substrates
Vb,max OAT3, Active and Passive Uptake (OAT3): 492 ± 144 pmol/min/mg
Vb,max OAT3, Active Uptake Only (OAT3): 470 ± 132 pmol/min/mg
CLint,sec Observed [5]: 680 L/h
CLsec Observed [5]: 5.51 L/h
Kd (human serum albumin; mean ± SD): 21.1 ± 1.4 µM
fraction unbound at 6 h (human serum albumin; [6]): 0.141 ± 0.012
fraction unbound at 6 h (human serum albumin; [7]): 0.029 ± 0.003
OAT1 substrate status (uptake in ciPTEC-OAT1) (OAT1): dual OAT1/3 substrates
Vb,max OAT1, Active and Passive Uptake (OAT1): 467 ± 49.4 pmol/min/mg
Vb,max OAT1, Active Uptake Only (OAT1): 447 ± 48 pmol/min/mg
SMILES: CCCCNc1cc(C(=O)O)cc(S(N)(=O)=O)c1Oc1ccccc1 [bumetanide]
CLr Observed [3]: 5.77 L/h

Vb,max OAT3, Active and Passive Uptake (OAT3): 478 ± 139 pmol/min/mg
Vb,max OAT3, Active Uptake Only (OAT3): 453 ± 127 pmol/min/mg
CLsec Observed [5]: 5.07 L/h
SMILES: NS(=O)(=O)c1cc(C(=O)O)c(NCc2ccco2)cc1Cl [furosemide]
